According to patent publication US5300629A, “Bactericidal and/or bacteriostatic peptides isolated from hemolymph of honeybees” (Plant Genetic Systems, N.V., priority 1987, dated 1994):
Converted amounts (≈) assume the structure as drawn. Where a SMILES comes first, the peptide text is derived from it.

How the values were obtained:
E. coli NCTC 9001 [1] = format: cell-based; conditions: NCTC 9001, 72 h
Description: Whole lymph or purified components, resuspended in PBS to a final volume equal to the starting material (heated lymph), was applied in 3 mm wells on agar plates seeded with the test organisms. Antibacterial activity was determined by measuring the growth-inhibition zones (in mm).
Test conditions: agar inhibition zone obtained with 10 namomole apidaecin, resuspended in 20 μl H2 O/well.

E. coli NCTC 9001 [2] = assay: Bactericidal activity, method not stated; format: cell-based; conditions: lyophilized apidaecins resuspended in PBS
[3] = system: Rhizobium meliloti ZB 314; assay: Minimal inhibitory concentration in liquid culture; format: cell-based; conditions: 200 μl rich medium, 10^4 log-phase bacteria
[4] = system: Corynebacterium michiganense pv. michiganense NCPPB 1573; assay: Minimal inhibitory concentration in liquid culture; format: cell-based; conditions: 200 μl rich medium, 10^4 log-phase bacteria, + = no inhibition at maximal value
Description: (§1) In addition the exact concentration was determined precisely by amino-acid analysis and an equal sample of natural Bee 6b was prepared, allowing to compare the bactericidal activity of both natural and synthetic apidaecins by means of growth inhibition assays in liquid cultures (see mat & Meth.). The minimal inhibitory concentrations (μg/ml) were determined in liquid culture : 200 μl of a rich medium (trypticase soy broth or nutrient broth) was inoculated with 10^4 log-phase bacteria. Peptide concentrations ranged between 0 and 200 μg/ml. The values express μg/ml; when no inhibition was noticed the maximal values are given (+200 μg/ml or +50 μg/ml). All peptides were chemically synthesized, except for bee 6b which is purified from bee lymph.

[5] = system: Corynebacterium insidiosum NCPPB 1109; assay: Minimal inhibitory concentration in liquid culture; format: cell-based; conditions: 200 μl rich medium, 10^4 log-phase bacteria
Description: as §1

[6] = system: Xanthomonas campestris pv. vesicatoria LMG 905; assay: Minimal inhibitory concentration in liquid culture; format: cell-based; conditions: 200 μl rich medium, 10^4 log-phase bacteria, + = no inhibition at maximal value
Description: as §1

Shigella flexneri CP 87 = assay: Minimal inhibitory concentration in liquid culture; format: cell-based; conditions: 200 μl rich medium, 10^4 log-phase bacteria
Description: as §1

[7] = system: Citrobacter freundii ATCC 8090; assay: Minimal inhibitory concentration in liquid culture; format: cell-based; conditions: 200 μl rich medium, 10^4 log-phase bacteria
[8] = system: Escherichia coli NCTC 9001; assay: Minimal inhibitory concentration in liquid culture; format: cell-based; conditions: 200 μl rich medium, 10^4 log-phase bacteria
[9] = system: Agrobactierium tumefaciens DSM 3129; assay: Minimal inhibitory concentration in liquid culture; format: cell-based; conditions: 200 μl rich medium, 10^4 log-phase bacteria
[10] = system: Pseudomonas syringae pv. maculicola NCPPB 1776; assay: Minimal inhibitory concentration in liquid culture; format: cell-based; conditions: 200 μl rich medium, 10^4 log-phase bacteria
[11] = system: Pseudomonas syringae pv. tabaci NCPPB 1237; assay: Minimal inhibitory concentration in liquid culture; format: cell-based; conditions: 200 μl rich medium, 10^4 log-phase bacteria
[12] = system: Erwinia salicis NCPPB 2530; assay: Minimal inhibitory concentration in liquid culture; format: cell-based; conditions: 200 μl rich medium, 10^4 log-phase bacteria
[13] = system: Pseudomonas syringae pv. tomato NCPPB 1106; assay: Minimal inhibitory concentration in liquid culture; format: cell-based; conditions: 200 μl rich medium, 10^4 log-phase bacteria
[14] = system: Salmonella typhimurium ATCC 23565; assay: Minimal inhibitory concentration in liquid culture; format: cell-based; conditions: 200 μl rich medium, 10^4 log-phase bacteria
[15] = system: Erwinia carotovora var carotovora NCPPB 312; assay: Minimal inhibitory concentration in liquid culture; format: cell-based; conditions: 200 μl rich medium, 10^4 log-phase bacteria
Salmonella Newport CD 94 = assay: Minimal inhibitory concentration in liquid culture; format: cell-based; conditions: 200 μl rich medium, 10^4 log-phase bacteria
[16] = system: Pseudomonas solanacearum ATCC 11696; format: cell-based; conditions: 200 μl rich medium, 10^4 log-phase bacteria
[17] = system: Erwinia carotovora var atroseptica LMG 2385; assay: Minimal inhibitory concentration in liquid culture; format: cell-based; conditions: 200 μl rich medium, 10^4 log-phase bacteria
[18] = system: Bacillus megaterium QB 1551; assay: Minimal inhibitory concentration in liquid culture; format: cell-based; conditions: 200 μl rich medium, 10^4 log-phase bacteria, + = no inhibition at maximal value
[19] = system: Xanthomonas campestris pv. campestris A 902; assay: Minimal inhibitory concentration in liquid culture; format: cell-based; conditions: 200 μl rich medium, 10^4 log-phase bacteria, + = no inhibition at maximal value

CC[C@H](C)[C@H](NC(=O)[C@@H](N)Cc1ccc(O)cc1)C(=O)N1CCC[C@H]1C(=O)N[C@@H](CCC(N)=O)C(=O)N1CCC[C@H]1C(=O)N[C@@H](CCCNC(=N)N)C(=O)N1CCC[C@H]1C(=O)N1CCC[C@H]1C(=O)N[C@@H](Cc1c[nH]cn1)C(=O)N1CCC[C@H]1C(=O)N[C@@H](CCCNC(=N)N)C(=O)N[C@@H](CC(C)C)C(=O)O [Apid IB6, Y-I-P-Q-P-R-P-P-H-P-R-L] (H-YIPQPRPPHPRL-OH)
agar inhibition zone (E. coli NCTC 9001 [1]): 9 mm

CC[C@H](C)[C@H](NC(=O)[C@H](Cc1ccc(O)cc1)NC(=O)[C@@H](NC(=O)[C@@H]1CCCN1C(=O)[C@H](CCCNC(=N)N)NC(=O)[C@@H](N)CC(N)=O)C(C)C)C(=O)N1CCC[C@H]1C(=O)N[C@@H](CCC(N)=O)C(=O)N1CCC[C@H]1C(=O)N[C@@H](CCCNC(=N)N)C(=O)N1CCC[C@H]1C(=O)N1CCC[C@H]1C(=O)N[C@@H](Cc1c[nH]cn1)C(=O)N1CCC[C@H]1C(=O)N[C@@H](CCCNC(=N)N)C(=O)N[C@@H](CC(C)C)C(=O)O [Apid Ib2, N-R-P-V-Y-I-P-Q-P-R-P-P-H-P-R-L] (H-NRPVYIPQPRPPHPRL-OH)
agar inhibition zone (E. coli NCTC 9001 [1]): 16 mm

CC[C@H](C)[C@H](NC(=O)[C@H](Cc1ccc(O)cc1)NC(=O)[C@@H](NC(=O)[C@@H]1CCCN1)C(C)C)C(=O)N1CCC[C@H]1C(=O)N[C@@H](CCC(N)=O)C(=O)N1CCC[C@H]1C(=O)N[C@@H](CCCNC(=N)N)C(=O)N1CCC[C@H]1C(=O)N1CCC[C@H]1C(=O)N[C@@H](Cc1c[nH]cn1)C(=O)N1CCC[C@H]1C(=O)N[C@@H](CCCNC(=N)N)C(=O)N[C@@H](CC(C)C)C(=O)O [Apid Ib4, P-V-Y-I-P-Q-P-R-P-P-H-P-R-L] (H-PVYIPQPRPPHPRL-OH)
agar inhibition zone (E. coli NCTC 9001 [1]): 14 mm

CC[C@H](C)[C@H](NC(=O)[C@H](Cc1ccc(O)cc1)NC(=O)[C@@H](NC(=O)[C@@H]1CCCN1C(=O)[C@H](CCCNC(=N)N)NC(=O)[C@H](CC(N)=O)NC(=O)[C@H](CC(N)=O)NC(=O)CN)C(C)C)C(=O)N1CCC[C@H]1C(=O)N[C@@H](CCC(N)=O)C(=O)N1CCC[C@H]1C(=O)N[C@@H](CCCNC(=N)N)C(=O)N1CCC[C@H]1C(=O)N1CCC[C@H]1C(=O)N[C@@H](Cc1c[nH]cn1)C(=O)N1CCC[C@H]1C(=O)N[C@@H](CCCNC(=N)N)C(=O)N[C@@H](CC(C)C)C(=O)O [Apid Ib] (H-GNNRPVYIPQPRPPHPRL-OH)
bactericidal activity (E. coli NCTC 9001 [2]): possessed a bactericidal activity | agar inhibition zone (E. coli NCTC 9001 [1]): 18 mm

CC[C@H](C)[C@H](NC(=O)[C@H](CCCNC(=N)N)NC(=O)[C@@H]1CCCN1C(=O)[C@H](Cc1c[nH]cn1)NC(=O)[C@@H]1CCCN1C(=O)[C@@H]1CCCN1C(=O)[C@H](CCCNC(=N)N)NC(=O)[C@@H]1CCCN1C(=O)[C@H](CCC(N)=O)NC(=O)[C@@H]1CCCN1C(=O)[C@@H](NC(=O)[C@H](Cc1ccc(O)cc1)NC(=O)[C@@H](NC(=O)[C@@H]1CCCN1C(=O)[C@H](CCCNC(=N)N)NC(=O)[C@H](CC(N)=O)NC(=O)[C@H](CC(N)=O)NC(=O)[C@H](CC(N)=O)NC(=O)CN)C(C)C)[C@@H](C)CC)C(=O)O [Apid NT+1] (H-GNNNRPVYIPQPRPPHPRI-OH)
minimal inhibitory concentration [3]: 0.1 µg/mL (≈ 0.045 µM) | minimal inhibitory concentration [4]: > 50 µg/mL | minimal inhibitory concentration [5]: 100 µg/mL (≈ 45 µM) | minimal inhibitory concentration [6]: > 50 µg/mL | minimal inhibitory concentration (Shigella flexneri CP 87): 0.1 µg/mL (≈ 0.045 µM) | bactericidal activity (E. coli NCTC 9001 [2]): possessed a bactericidal activity | minimal inhibitory concentration [7]: 0.2 µg/mL (≈ 0.09 µM) | minimal inhibitory concentration [8]: 0.2 µg/mL (≈ 0.09 µM) | minimal inhibitory concentration [9]: 0.2 µg/mL (≈ 0.09 µM) | minimal inhibitory concentration [10]: 2.5 µg/mL (≈ 1.12 µM) | minimal inhibitory concentration [11]: 2.5 µg/mL (≈ 1.12 µM) | minimal inhibitory concentration [12]: 0.02 µg/mL (≈ 0.009 µM) | minimal inhibitory concentration [13]: 1 µg/mL (≈ 0.45 µM) | minimal inhibitory concentration [14]: 0.1 µg/mL (≈ 0.045 µM) | minimal inhibitory concentration [15]: 2.5 µg/mL (≈ 1.12 µM) | minimal inhibitory concentration (Salmonella Newport CD 94): 1 µg/mL (≈ 0.45 µM) | minimal inhibitory concentration [16]: 25 µg/mL (≈ 11.2 µM) | minimal inhibitory concentration [17]: 1 µg/mL (≈ 0.45 µM) | minimal inhibitory concentration [18]: 100 µg/mL | minimal inhibitory concentration [19]: > 50 µg/mL

CC[C@H](C)[C@H](NC(=O)[C@H](Cc1ccc(O)cc1)NC(=O)[C@@H](NC(=O)[C@@H]1CCCN1C(=O)[C@H](CCCNC(=N)N)NC(=O)[C@H](CC(N)=O)NC(=O)[C@H](CC(N)=O)NC(=O)CN)C(C)C)C(=O)N[C@@H](CCC(N)=O)C(=O)N1CCC[C@H]1C(=O)N[C@@H](CCCNC(=N)N)C(=O)N1CCC[C@H]1C(=O)N1CCC[C@H]1C(=O)N[C@@H](Cc1c[nH]cn1)C(=O)N1CCC[C@H]1C(=O)N[C@@H](CCCNC(=N)N)C(=O)N[C@@H](CC(C)C)C(=O)O [Apid PT-1] (H-GNNRPVYIQPRPPHPRL-OH)
minimal inhibitory concentration [3]: 0.02 µg/mL (≈ 0.00994 µM) | minimal inhibitory concentration (Shigella flexneri CP 87): 0.5 µg/mL (≈ 0.249 µM) | bactericidal activity (E. coli NCTC 9001 [2]): possessed a bactericidal activity | minimal inhibitory concentration [7]: 5 µg/mL (≈ 2.49 µM) | minimal inhibitory concentration [8]: 5 µg/mL (≈ 2.49 µM) | minimal inhibitory concentration [9]: 0.5 µg/mL (≈ 0.249 µM) | minimal inhibitory concentration [12]: 0.05 µg/mL (≈ 0.0249 µM) | minimal inhibitory concentration [13]: 0.1 µg/mL (≈ 0.0497 µM) | minimal inhibitory concentration [14]: 5 µg/mL (≈ 2.49 µM) | minimal inhibitory concentration (Salmonella Newport CD 94): 5 µg/mL (≈ 2.49 µM) | minimal inhibitory concentration [18]: 150 µg/mL

CC[C@H](C)[C@H](NC(=O)[C@H](Cc1ccc(O)cc1)NC(=O)[C@@H](NC(=O)[C@@H]1CCCN1C(=O)[C@H](CCCNC(=N)N)NC(=O)[C@H](CC(N)=O)NC(=O)[C@H](CC(N)=O)NC(=O)CN)C(C)C)C(=O)N1CCC[C@H]1C(=O)N[C@@H](CCC(N)=O)C(=O)N1CCC[C@H]1C(=O)N[C@@H](CCCNC(=N)N)C(=O)N1CCC[C@H]1C(=O)N1CCC[C@H]1C(=O)N[C@@H](Cc1cnc[nH]1)C(=O)N1CCC[C@H]1C(=O)N[C@@H](CCCNC(=N)N)C(=O)N[C@@H](CC(C)C)C(=O)O [bee 6b] (H-GNNRPVYIPQPRPPHPRL-OH)
cell division and callus formation (Tobacco leaf protoplasts; after immobilization in low melting agarose): normal cell division and callus formation occured | visible effects during incubation (Tobacco leaf protoplasts; tobacco leaf protoplasts 10^6 cells/ml, 2 days, 10 ng/ml up to 50 μg/ml): no visible effects were observed
